Here are results for 7 compounds from publication PMC4844309, “Identification of a Bioactive Compound against Adult T-cell Leukaemia from Bitter Gourd Seeds” (Plants, 2013).

Where two headings read alike, the source gives them in different places.

One test has as its system Su9T01 cells. As to the kind of experiment: ATL cell proliferation assay (WST-8), Su9T01 cells. Type of test: cell-based, human. The conditions noted are these: read-out: IC50 (inhibition of cell proliferation), Su9T01. As to the method:
(§1) ED cells were kindly provided by Dr. M. Maeda (Kyoto University, Kyoto, Japan) and Su9T01 cells were kindly provided by Dr. N. Arima (Kagoshima University, Kagoshima, Japan). The test compounds were dissolved in dimethyl sulfoxide and subjected to assay screening. The method of ATL assay is described in a previous report. IC50 calculation was some curve fitted onto the determined proliferation inhibition points.
In general terms: Formazan colour is commonly taken as a measure of viable cells.

The subject of the next test is ED cells. As to the kind of experiment: ATL cell proliferation assay (WST-8), ED cells. Type of test: cell-based, human. The following applies: read-out: IC50 (inhibition of cell proliferation), ED. As to the method:
as §1

The subject of the next test is HL-60 cells. Set-up: method as in PMID 22654956, PMID 18959405. The following applies: human acute myelogenous leukemia cells; cited from earlier work.
Test [1] relates to phytohemagglutinin-activated human peripheral blood mononuclear cells (PBMC). As to the kind of experiment: cells. The following applies: read-out: IC50 (inhibition of PBMC proliferation). As for the experimental part:
as §1

Setting [2] is: Homo sapiens, Su9T01 cells, 72 h incubation in RPMI-1640, WST-8 assay.
[3] abbreviates: Homo sapiens, ED cells, 72 h incubation in RPMI-1640, WST-8 assay.
Setting [4] is: Su9T01 cells, 72 h incubation in RPMI-1640, WST-8 assay.
[5] abbreviates: ED cells, 72 h incubation in RPMI-1640, WST-8 assay.

Turning to `CCCCC/C=C\C/C=C\CCCCCCCC(=O)O` [linoleic acid], the IC50 is 180 µM with Su9T01 cells (setting [2]) and 101 µM in the test with ED cells (setting [3]).
Epigallocatechin-3-gallate [EGCG]: the IC50 was found to be 166 µM in the test with Su9T01 cells (setting [4]) and 153 µM in the test on ED cells (setting [5]).
Regarding `CCCCC/C=C\C/C=C\C/C=C\CCCCC(=O)O` [γ-linolenic acid, γ-Linolenic acid], the IC50 in the test on Su9T01 cells (setting [2]) stood at 174 µM; in the test with ED cells (setting [3]) it was 61.3 µM.
Take `CCCCCCCCCCCCCCCCCC(=O)O` [stearic acid, Stearic acid]: the IC50 with Su9T01 cells (setting [2]) is over 500 µM.
For the compound `CCCC/C=C/C=C/C=C\CCCCCCCC(=O)O` [α-ESA, α-Eleostearic acid], the IC50 came out at 29.3 µM with Su9T01 cells (Homo sapiens, 72 h); 8.9 µM with ED cells (Homo sapiens, 72 h); 31 µM in test [1]. Further, in the test on HL-60 cells, the “Anti-leukemic potential in HL-60 cells” value is recorded as “anti-leukemic potential”.
With `CCCCCCCC/C=C/CCCCCCCC(=O)O` [elaidic acid], the IC50 was over 500 µM with Su9T01 cells (Homo sapiens, 72 h) and over 500 µM in the test with ED cells (Homo sapiens, 72 h).
On to `CC/C=C\C/C=C\C/C=C\CCCCCCCC(=O)O` [α-linolenic acid], for which the IC50 with Su9T01 cells (setting [4]) amounted to 167 µM; in the test with ED cells (setting [5]), 130 µM.
